According to patent US8048880B2, “Treatment of cardiovascular disease and dyslipidemia using secretory phospholipase A2 (SPLA2) inhibitors and SPLA2 inhibitor combination therapies” (Anthera Pharmaceuticals, Inc., priority 2007, dated 2011):

Columns and labels:
[1] = Body weight of ApoE−/− mice on high fat diet during 16 weeks of A-002 (Example 1); assay type: in vivo; details: oral gavage
Method: Male ApoE^−/− mice were fed a high fat diet (21% fat, 0.15% cholesterol, 19.5% casein) ad libitum for two weeks in order to acclimate to the diet. Plasma cholesterol levels and body weight were measured in order to obtain baseline levels, and mice were randomized into three groups of 20 mice based on these measurements. After the acclimation period, mice remained on the high fat diet and were administered A-002 (30 mg/kg or 90 mg/kg) or vehicle only (5% acacia) twice a day for 16 weeks by oral gavage.
Plasma cholesterol levels and body weight were measured at 4, 8, 12, and 16 weeks after the start of A-002 administration. Comparisons of measurements between test and control mice at each time period were performed using a two-way analysis of variance test (ANOVA) for repeated measures, followed by post-hoc Bonferroni test for significance.

[2] = system: human subjects with CVD, specifically stable coronary artery disease; assay: Serum lipid levels in humans, A-002 twice a day for eight weeks (Example 4); assay type: in vivo
Method: (§1) 204 human subjects from the United States with CVD, specifically stable coronary artery disease, were randomized to receive placebo or A-002 via oral administration twice a day over an eight week administration period at dosages of 50 mg, 100 mg, 250 mg, or 500 mg. Levels of various lipids and inflammatory markers were measured at the outset of the trial and at the end of weeks four and/or eight. For data sets with a normal distribution, mean levels of lipids or inflammatory markers were analyzed. For data sets with non-normal distribution, median levels were analyzed. […] In addition, administration of A-002 decreased median levels of CRP (Table 11).
The combined effect of A-002 and statin administration on LDL levels was tested in a population of 332 subjects. This population consisted of the original 204 United States subjects, plus an additional 128 subjects from the Ukraine with stable CAD that received placebo or A-002 based according to the same protocol as the United States subjects. […] Similarly, A-002 decreased LDL levels in subjects receiving a variety of non-statin compounds used in the treatment of CVD, including ezetimibe, AEGR-733/ezetimibe, colesevelam hydrochloride (WelChol®), MK-0524A (Cordaptive®), lisinopril/MC-1 antibody (MC-4232), and Angiotensin Receptor Blocker (ARB)/MC-1 (MC-4262).

sPLA2 = assay: Serum sPLA2 concentration in humans, A-002 twice a day (Example 4); assay type: in vivo, human; details: ITT population, week 8
Method: as §1

CRP = assay: Serum CRP concentration in humans, A-002 twice a day (Example 4); assay type: in vivo, human; details: metabolic syndrome subpopulation, week 8
Method: as §1
Serum TG, CRP, and IL-6 levels were measured at eight weeks in 86 subjects from the ITT population diagnosed with metabolic syndrome.

[3] = diabetic subpopulation, week 8, A-002 twice a day
[4] = ezetimibe subpopulation (ezetimibe 10 mg), week 8, A-002 twice a day
[5] = metabolic syndrome subpopulation, week 8, A-002 twice a day
[6] = non-statin subpopulation with baseline serum LDL greater than or equal to 72 mg/dl, week 8, A-002 twice a day
[7] = non-statin subpopulation, week 4, A-002 twice a day
[8] = non-statin subpopulation, week 8, A-002 twice a day
[9] = serum, ITT population, week 8, A-002 50-500 mg twice a day
[10] = serum, ITT population, week 8, A-002 twice a day
[11] = statin subpopulation (US + Ukraine), week 4, A-002 twice a day
[12] = statin subpopulation (US + Ukraine), week 8, A-002 twice a day
[13] = statin subpopulation (US), week 8, A-002 twice a day
[14] = statin subpopulation with baseline serum LDL greater than or equal to 72 mg/dl, week 8, A-002 twice a day
[15] = subpopulation with baseline serum LDL greater than or equal to 72 mg/dl, week 8, A-002 twice a day
[16] = summary Table 20, A-002 alone, statin alone or A-002 plus statin

CCc1c(C(=O)C(N)=O)c2c(OCC(=O)OC)cccc2n1Cc1ccccc1 [A-002, [[3-(2-Amino-1,2-dioxoethyl)-2-ethyl-1-(phenylmethyl)-1H-indol-4-yl]oxy]acetic acid methyl ester]
Body weight increase over the 16 week test period ([1]; 30 mg/kg A-002 twice a day): ~150% | Body weight increase over the 16 week test period ([1]; 90 mg/kg A-002 twice a day): ~141% | reduction (decrease) of mean serum small LDL particle levels ([2]; at eight weeks, United States population, text restating Tables 14 and 17): 3.25% | decrease of mean serum LDL levels ([2]; at eight weeks, United States subjects with baseline LDL of 72 mg/dl or greater, text restating Tables 15 and 19): 8.23% | decrease of mean serum LDL levels ([2]; at week eight, combined United States and Ukraine populations, Tables 16 and 18): 4.22% | decrease of mean serum LDL levels ([2]; at week four, combined United States and Ukraine populations, Tables 16 and 18): 6.93% | % change vs. baseline (mean [LDL]) [2, 3]: −16.64% | Change in mean [LDL] vs. baseline [2, 3]: -10.6 mg/dL | % change vs. baseline (mean [LDL]) [2, 4]: −17.8% | Change in mean [LDL] vs. baseline [2, 4]: -15.4 mg/dL | % change vs. baseline (median [TG]) [2, 5]: −13.99% | Change in median [TG] vs. baseline [2, 5]: -24.0 mg/dL | % change vs. baseline (mean [LDL]) [2, 6]: −8.23% | Change in mean [LDL] vs. baseline [2, 6]: -9.2 mg/dL | % change vs. baseline (mean [LDL]) [2, 7]: −6.93% | Change in mean [LDL] vs. baseline [2, 7]: -8.7 mg/dL | % change vs. baseline (mean [LDL]) [2, 8]: −4.22% | % change vs. baseline (mean [small LDL particle]) [2, 8]: −3.25% | Change in mean [LDL] vs. baseline [2, 8]: -5.3 mg/dL | Change in mean [small LDL particle] vs. baseline [2, 8]: -24.0 nmol/L | % change vs. baseline (mean [LDL]) [2, 9]: −10.68% | Change in mean [LDL] vs. baseline [2, 9]: -8.2 mg/dL | % change vs. baseline (mean [LDL particle]) [2, 10]: −7.13% | % change vs. baseline (mean [TG]) [2, 10]: −6.67% | % change vs. baseline (mean [small LDL particle]) [2, 10]: −8.33% | % change vs. baseline (mean [total cholesterol]) [2, 10]: −8.16% | Change in mean [LDL particle] vs. baseline [2, 10]: -73.6 nmol/L | Change in mean [TG] vs. baseline [2, 10]: -10.1 mg/dL | Change in mean [small LDL particle] vs. baseline [2, 10]: -61.3 nmol/L | Change in mean [total cholesterol] vs. baseline [2, 10]: -12.8 mg/dL | % change vs. baseline (mean [LDL]) [2, 11]: −14.04% | Change in mean [LDL] vs. baseline [2, 11]: -10.8 mg/dL | % change vs. baseline (mean [LDL]) [2, 12]: −12.48% | Change in mean [LDL] vs. baseline [2, 12]: -9.6 mg/dL | % change vs. baseline (mean [small LDL particle]) [2, 13]: −9.00% | Change in mean [small LDL particle] vs. baseline [2, 13]: -66.2 nmol/L | % change vs. baseline (mean [LDL]) [2, 14]: −16.27% | Change in mean [LDL] vs. baseline [2, 14]: -15.0 mg/dL | LDL levels in subjects receiving non-statin compounds used in the treatment of CVD ([2]; subjects on ezetimibe, AEGR-733/ezetimibe, colesevelam hydrochloride, MK-0524A, MC-4232 or MC-4262): decreased | % change vs. baseline (mean [LDL]) [2, 15]: −14.68% | Change in mean [LDL] vs. baseline [2, 15]: -14.0 mg/dL | Observed change following administration: Mean serum [LDL] at week 4 [2, 16]: −6.93% | Observed change following administration: Mean serum [LDL] at week 8 [2, 16]: −4.22% | Observed change following administration: Mean serum [LDL] in ≧72 mg/dl subpopulation at week 8 [2, 16]: −8.23% | Observed change following administration: Mean serum [small LDL particle] at week 8 [2, 16]: −3.25% | Observed change following administration: Mean serum [LDL] at week 8 ([2]; summary Table 22, A-002 alone, ezetimibe alone or A-002 plus ezetimibe): −4.22% | % change vs. baseline (median [sPLA2]) (sPLA2): −86.96% | Change in median [sPLA2] vs. baseline (sPLA2): -2.00 ng/mL | % change vs. baseline (median [CRP]) (CRP): −12.50% | Change in median [CRP] vs. baseline (CRP): -0.3 mg/L
